Assay results: patent US9187426B2, “Organic compounds” (Novartis AG, priority 2008, dated 2015)
Structures can show the parent of a compound that is named as a salt.

Row | Structure (SMILES) | melting point
1 | O=C(Nc1cc(-c2nc(-c3ccccc3)c[nH]2)ccn1)c1ccccc1 [Example 10.5, N-(4-(4-phenyl-1H-imidazol-2-yl)pyridin-2-yl)benzamide] | 265 to 267 °C
2 | CS(=O)(=O)c1cccc(C(=O)Nc2cc(C(=O)NCc3ccccc3)ccn2)c1 [Example 6.13, N-benzyl-2-(3-(methylsulfonyl)benzamido)isonicotinamide] | 170 to 171 °C
3 | Cn1ccc(CNC(=O)c2ccnc(N3CCN(Cc4ccc(F)cc4)C3=O)c2)n1 [Example 14.6, 2-(3-(4-fluorobenzyl)-2-oxoimidazolidin-1-yl)-N-((1-methyl-1H-pyrazol-3-yl)methyl)isonicotinamide] | 79 to 81 °C
4 | O=C(Nc1cc(-c2nc(Cc3ccccc3)no2)ccn1)c1ccccc1 [Example 12, N-[4-(3-benzyl-[1,2,4]oxadiazol-5-yl)-pyridin-2-yl]benzamide] | 150 to 151 °C
5 | O=C(NCc1ccccc1)c1ccnc(-n2ccc(OCc3ccccc3)cc2=O)c1 [Example 19, 4-benzyloxy-2-oxo-2H-[1,2′]bipyridinyl-4′-carboxylic acid benzylamide] | 158 to 161 °C
6 | O=C(NCc1ccccc1)c1ccnc(NC(=O)c2ccc(OC(F)(F)F)cc2)c1 [Example 5.1, N-benzyl-2-(4-trifluoromethoxybenzoylamino)isonicotinamide] | 151 to 153 °C
7 | Cc1ccc(CNC(=O)c2ccnc(NC(=O)c3ccccc3)c2)cc1 [Example 1.2, 2-benzamido-N-(4-methylbenzyl)isonicotinamide] | 135 to 138 °C
8 | O=C(NCc1ccccc1)c1ccnc(NC(=O)c2cccs2)c1 [Example 6.3, N-benzyl-2-(thiophene-2-carboxamido)isonicotinamide] | 160 to 162 °C
9 | O=C(NCc1ccccc1)c1ccnc(NC(=O)c2cccc(C(F)(F)F)c2)c1 [Example 6.15, N-benzyl-2-(3-(trifluoromethyl)benzamido)isonicotinamide] | 126 to 128 °C
10 | O=C(NCc1nccs1)c1ccnc(N2CCN(Cc3ccc(F)cc3)C2=O)c1 [Example 14.3, 2-(3-(4-fluorobenzyl)-2-oxoimidazolidin-1-yl)-N-(thiazol-2-ylmethyl)isonicotinamide] | 123 to 125 °C
11 | O=C(NCc1ccccc1)c1ccnc(NC(=O)c2ccccc2)c1 [Example 5, 2-benzamido-N-benzylisonicotinamide] | 174 to 176 °C
12 | Cc1c[nH]c(-c2ccnc(NC(=O)c3ccccc3)c2)n1 [Example 10, N-(4-(4-methyl-1H-imidazol-2-yl)pyridin-2-yl)benzamide] | 133 to 135 °C
13 | O=C(NCc1ccccc1)c1ccnc(NC(=O)c2cc(F)ccc2Cl)c1 [Example 6.9, N-benzyl-2-(2-chloro-5-fluorobenzamido)isonicotinamide] | 180 to 181 °C
14 | O=C(NCc1ccccc1)c1cc(O)nc(NC(=O)c2ccccc2)c1 [Example 8, 2-benzamido-N-benzyl-6-hydroxyisonicotinamide] | 257 °C (dec.)
15 | Cc1nc(CNC(=O)c2ccnc(N3CCN(Cc4ccc(F)cc4)C3=O)c2)cs1 [Example 14.13, 2-(3-(4-fluorobenzyl)-2-oxoimidazolidin-1-yl)-N-((2-methylthiazol-4-yl)methyl)isonicotinamide] | 76 to 78 °C
16 | N#Cc1ccc(C(=O)Nc2cc(C(=O)NCc3ccccc3)ccn2)cc1 [Example 6.10, N-benzyl-2-(4-cyanobenzamido)isonicotinamide] | 180 to 181 °C
17 | O=C(NCc1ncco1)c1ccnc(N2CCN(Cc3ccc(F)cc3)C2=O)c1 [Example 14.4, 2-(3-(4-fluorobenzyl)-2-oxoimidazolidin-1-yl)-N-(oxazol-2-ylmethyl)isonicotinamide] | 148 to 150 °C
18 | O=C(NCc1ccccc1)c1ccnc(-n2ccc(O)cc2=O)c1 [Example 20, 4-hydroxy-2-oxo-2H-[1,2′]bipyridinyl-4′-carboxylic acid benzylamide] | 102 to 105 °C
19 | O=C(NCc1ccccc1)c1ccnc(NC(=O)c2ccc(C(F)(F)F)cc2)c1 [Example 5.2, N-benzyl-2-(4-trifluoromethylbenzoylamino)isonicotinamide] | 181 to 183 °C
20 | CCCc1c[nH]c(-c2ccnc(NC(=O)c3ccccc3)c2)n1 [Example 10.1, N-(4-(4-propyl-1H-imidazol-2-yl)pyridin-2-yl)benzamide] | 95 to 97 °C
21 | Cc1nc(-c2ccccc2)sc1CNC(=O)c1ccnc(N2CCN(Cc3ccc(F)cc3)C2=O)c1 [Example 14.16, 2-(3-(4-fluorobenzyl)-2-oxoimidazolidin-1-yl)-N-((4-methyl-2-phenylthiazol-5-yl)methyl)isonicotinamide] | 182 to 184 °C
22 | O=C(NCc1cncs1)c1ccnc(N2CCN(Cc3ccc(F)cc3)C2=O)c1 [Example 14.1, 2-(3-(4-fluorobenzyl)-2-oxoimidazolidin-1-yl)-N-(thiazol-5-ylmethyl)isonicotinamide] | 148 to 150 °C
23 | COc1cc(C(=O)NCc2ccccc2)cc(NC(=O)c2ccccc2)n1 [Example 6.17, 2-benzamido-N-benzyl-6-methoxyisonicotinamide] | 132 to 133 °C

Next, values leading:

Row | melting point | Structure (SMILES)
24 | 165 to 167 °C | O=C(NCc1ccc(F)cc1)c1ccnc(N2CCN(Cc3ccc(F)c(F)c3)C2=O)c1 [Example 15.20, 2-(3-(3,4-difluorobenzyl)-2-oxoimidazolidin-1-yl)-N-(4-fluorobenzyl)isonicotinamide]
25 | 189 to 191 °C | O=C(NCc1cncs1)c1ccnc(N2CCN(Cc3ccc(OC(F)(F)F)cc3)C2=O)c1 [Example 26.14, 2-(2-Oxo-3-(4-(trifluoromethoxy)benzyl)imidazolidin-1-yl)-N-(thiazol-5-ylmethyl)-isonicotinamide]
26 | 165 to 167 °C | O=C(NCc1ccccc1)c1ccnc(N2CCN(Cc3ccc4nonc4c3)C2=O)c1 [Example 26.5, 2-(3-(Benzo[c][1,2,5]-oxadiazol-5-ylmethyl)-2-oxoimidazolidin-1-yl)-N-benzylisonicotinamide]
27 | 163 to 165 °C | Cc1nc(CNC(=O)c2ccnc(N3CCN(Cc4ccc(F)cc4)C3=O)c2)no1 [Example 26.7, 2-(3-(4-Fluorobenzyl)-2-oxoimidazolidin-1-yl)-N-((5-methyl-1,2,4-oxadiazol-3-yl)methyl)-isonicotinamide]
28 | 143 to 145 °C | O=C(NCc1ccc(F)c(F)c1)c1ccnc(N2CCN(Cc3ccccn3)C2=O)c1 [Example 15.18, N-(3,4-difluorobenzyl)-2-(2-oxo-3-(pyridin-2-ylmethyl)imidazolidin-1-yl)isonicotinamide]
29 | 184 to 186 °C | O=C(NCc1cnc(Cl)s1)c1ccnc(N2CCN(Cc3ccc(OC(F)(F)F)cc3)C2=O)c1 [Example 26.34, N-((2-Chlorothiazol-5-yl)methyl)-2-(2-oxo-3-(4-(trifluoromethoxy)-benzyl)imidazolidin-1-yl)isonicotinamide]
30 | 182 to 183 °C | O=C(NCc1ccc(F)c(F)c1)c1ccnc(N2CCN(Cc3ccc(F)cc3)C2=O)c1 [Example 15.14, N-(3,4-difluorobenzyl)-2-(3-(4-fluorobenzyl)-2-oxoimidazolidin-1-yl)isonicotinamide]
31 | 123 to 125 °C | O=C(NCCC1CC1)c1ccnc(N2CCN(Cc3ccc(F)cc3)C2=O)c1 [Example 15.7, N-(2-cyclopropylethyl)-2-(3-(4-fluorobenzyl)-2-oxoimidazolidin-1-yl)isonicotinamide]
32 | 111 to 113 °C | O=C(NCc1cncs1)c1ccnc(N2CCN(Cc3ccc(F)c(F)c3)C2=O)c1 [Example 26.24, 2-(3-(3,4-Difluorobenzyl)-2-oxoimidazolidin-1-yl)-N-(thiazol-5-ylmethyl)-isonicotinamide]
33 | 141 to 143 °C | O=C(NCc1ccccn1)c1ccnc(N2CCN(Cc3ccc(F)cc3)C2=O)c1 (as salt: hydrochloride) [Example 15.3, 2-(3-(4-fluorobenzyl)-2-oxoimidazolidin-1-yl)-N-(pyridin-2-ylmethyl)isonicotinamide dihydrochloride]
34 | 153 to 155 °C | O=C(NCc1cccnc1)c1ccnc(N2CCN(Cc3ccc(F)cc3)C2=O)c1 [Example 15.1, 2-(3-(4-fluorobenzyl)-2-oxoimidazolidin-1-yl)-N-(pyridin-3-ylmethyl)isonicotinamide]
35 | 161 to 163 °C | O=C(NCc1ccc(F)cc1)c1ccnc(N2CCN(Cc3ccncc3)C2=O)c1 [Example 15.16, N-(4-fluorobenzyl)-2-(2-oxo-3-(pyridin-4-ylmethyl)imidazolidin-1-yl)isonicotinamide]
36 | 161 to 163 °C | O=C(NCc1ccccn1)c1cc(N2CCN(Cc3ccc(F)cc3)C2=O)nc2ccccc12 [Example 26.8, 2-(3-(4-Fluorobenzyl)-2-oxoimidazolidin-1-yl)-N-(pyridin-2-ylmethyl)quinoline-4-carboxamide]
37 | 134 to 136 °C | O=C(NCc1ccc(F)c(F)c1)c1ccnc(N2CCN(CC3CC3)C2=O)c1 [Example 15.12, 2-(3-(cyclopropylmethyl)-2-oxoimidazolidin-1-yl)-N-(3,4-difluorobenzyl)isonicotinamide]
38 | 205 to 207 °C | O=C(NCc1ccncc1)c1ccnc(N2CCN(Cc3ccc(F)cc3)C2=O)c1 [Example 15.2, 2-(3-(4-fluorobenzyl)-2-oxoimidazolidin-1-yl)-N-(pyridin-4-ylmethyl)isonicotinamide]
39 | 105 to 107 °C | O=C(NCc1nccs1)c1ccnc(N2CCN(Cc3ccc(F)c(F)c3)C2=O)c1 [Example 26.25, 2-(3-(3,4-Difluorobenzyl)-2-oxoimidazolidin-1-yl)-N-(thiazol-2-ylmethyl)-isonicotinamide]
40 | 115 to 117 °C | CC(NC(=O)c1ccnc(N2CCN(Cc3ccc(F)cc3)C2=O)c1)c1ccccc1 (centres unmarked) [Example 26.6, 2-(3-(4-Fluorobenzyl)-2-oxoimidazolidin-1-yl)-N-(1-phenylethyl)-isonicotinamide]
41 | 141 to 142 °C | O=C(NCc1ccc(F)cc1)c1ccnc(N2CCN(Cc3ccccn3)C2=O)c1 [Example 15.15, N-(4-fluorobenzyl)-2-(2-oxo-3-(pyridin-2-ylmethyl)imidazolidin-1-yl)isonicotinamide]
